Experimental data as given in patent publication EP0769966B1, “BIOTIN COMPOUNDS FOR TARGETTING TUMORS AND SITES OF INFECTION” (priority 1994, dated 1995).
Blank lines part the entries; values can stand above or below the compound they belong to.

Experiments:
avidin = avidin (Gallus gallus, UniProt P02701); assay: Competitive binding of F-18 labeled biotin analogs to avidin vs. unlabeled d-biotin
Description: The two biotin derivatives were evaluated for binding to avidin in the presence of varying concentrations of unlabeled d-biotin as described in Example 3.
A preliminary measure of the binding characteristics of the fluoro analogs of biotin were performed. The binding of these novel F-18 labeled biotin analogs to avidin was evaluated by measuring the binding of F-18 labeled biotin analogs to avidin in the presence of varying concentrations of unlabeled d-biotin. Serial dilutions of d-biotin were prepared in phopshate buffered saline pH 7.4 (PBS). A fixed quantity of the no-carrier added F-18 labeled biotin 1 or 2 (10- 100µCi) were mixed with each d-biotin dilution so that the range of concentrations of cold biotin were 3 orders of magnitude greater and less than the concentration of avidin ([…]). A 200 µl aliquot of the F-18 biotin/cold biotin solution was added to 200 µl of avidin in PBS. The solution was vortexed and allowed to incubate for 1 hour after which time a 5 µl aliquot of the solution was analysed by instant thin layer chromatography (Gelman ILTC-SG) using 0.1 M acetate buffer pH 6.0. In this chromatographic system the F-18 biotin analogs bound to avidin origin while the unbound F-18-biotin analogs move to the solvent front. Percent binding of F-18 biotin analog was calculated as [(counts at origin/total counts)* 100]. For each F-18-biotin analog potential impurities remaining at the origin were determined and the results of binding corrected accordingly.

E. coli infected rats = assay: in vivo; type: in vivo, male Sprague-Dawley rats; conditions: for Infected to normal tissue ratio, Norm mus: infection/normal muscle
Description: (§1) A clinical isolate of E. Coli was stored at -70°C in a freezing media containing 20% glycerol and 80% dextrose phosphate until use. Aliquots of bacteria were defrosted and colony counts performed on serial dilutions grown overnight on BBL Brucella agar plates. Based on the colony count, freshly thawed bacteria suspensions were washed and diluted with saline to a final concentration of […]. Aliquots (0.1 ml) of bacterial suspensions (8 x 10^9 organisms/ml) were injected into the right thigh muscle of 48 male Sprague-Dawley rats (125-150 g, Charles River Breeding Laboratories, Burlington, MD). Twenty-four rats were used for each labeled biotin compound. Twenty-four hours after injection, swelling in the right thigh readily appeared, and 24 rats each received 1.67 mg of avidin in saline via the tail vein. […] Rats were sacrificed at 5 and 60 min. post-injection, six rats per time point. Blood samples were obtained by cardiac puncture. Syringes were weighed before and after injection to determine the volume delivered. The activity per unit volume was obtained from standards. A total of eleven different tissues were excised, weighed, and counted. These tissues included blood; bone; lung; liver; adrenal; spleen; kidneys; heart; muscle (thigh); teste; and infected muscle (thigh). The excised tissues were blotted, weighed, and counted in a scintillation well counter. The raw counts were decay corrected. The results were expressed as percent injected dose per gram, and infection-to-normal muscle ratios (mean ± s.d.). The biodistribution results were evaluated by analysis of variance (one-way ANOVA). The effect of avidin […] on biodistribution was evaluated by student t-test.

in vivo = type: in vivo, male Sprague-Dawley rats; conditions: rat, in vivo, iv
Description: as §1

[1] = system: E. coli infection in right thigh; conditions: Time 4 (time unit not given); Reference *1; cited from earlier work
[2] = Without Avidin, 60 Min., listed as 18F-biotin1
[3] = Without Avidin, 60 Min., listed as 18F-labeled biotin 1

Chain of avidin (P02701 25-152): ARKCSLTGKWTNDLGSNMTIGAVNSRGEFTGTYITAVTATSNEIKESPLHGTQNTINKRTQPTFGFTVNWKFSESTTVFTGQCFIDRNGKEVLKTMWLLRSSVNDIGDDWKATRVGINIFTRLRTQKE

- Bmax (avidin; scatchard transformation of displacement curve, cold d-biotin): 5.57 x 10 ^-16 M
- accumulation in kidney relative to blood (E. coli infected rats; rat, in vivo, 5 min): 4.5 fold
- Tissue distribution, Adrenal (E. coli infected rats; rat, in vivo, iv, 5 min): 0.85±0.13 percent injected dose per gram
- Tissue distribution, Blood (E. coli infected rats; rat, in vivo, iv, 5 min): 1.13±0.11 percent injected dose per gram
- Tissue distribution, Bone (E. coli infected rats; rat, in vivo, iv, 5 min): 1.19±0.23 percent injected dose per gram
- Tissue distribution, Heart (E. coli infected rats; rat, in vivo, iv, 5 min): 0.99±0.12 percent injected dose per gram
- Tissue distribution, Inf mus (E. coli infected rats; rat, in vivo, iv, 5 min): 0.99±0.11 percent injected dose per gram
- Tissue distribution, Kidney (E. coli infected rats; rat, in vivo, iv, 5 min): 4.01±0.77 percent injected dose per gram
- Tissue distribution, Liver (E. coli infected rats; rat, in vivo, iv, 5 min): 1.29±0.17 percent injected dose per gram
- Tissue distribution, Norm mus (E. coli infected rats; rat, in vivo, iv, 5 min): 0.82±0.12 percent injected dose per gram
- Tissue distribution, Spleen (E. coli infected rats; rat, in vivo, iv, 5 min): 1.52±0.32 percent injected dose per gram
- Tissue distribution, Teste (E. coli infected rats; rat, in vivo, iv, 5 min): 0.50±0.11 percent injected dose per gram
- Tissue distribution, Blood (E. coli infected rats; rat, in vivo, iv, 1 h): 0.19±0.04 percent injected dose per gram
- Tissue distribution, Bone (E. coli infected rats; rat, in vivo, iv, 1 h): 2.29±0.14 percent injected dose per gram
- Tissue distribution, Inf mus (E. coli infected rats; rat, in vivo, iv, 1 h): 0.65±0.14 percent injected dose per gram
- Tissue distribution, Kidney (E. coli infected rats; rat, in vivo, iv, 1 h): 0.32±0.04 percent injected dose per gram
- Tissue distribution, Norm mus (E. coli infected rats; rat, in vivo, iv, 1 h): 0.10±0.02 percent injected dose per gram
- Tissue distribution, Spleen (E. coli infected rats; rat, in vivo, iv, 1 h): 0.19±0.0 percent injected dose per gram
- Tissue distribution, Teste (E. coli infected rats; rat, in vivo, iv, 1 h): 0.19±0.04 percent injected dose per gram
- tissue uptake at 5 min (in vivo; Tissue distribution, Adrenal): 1 ± 0.2 %ID/g
- tissue uptake at 1 h (in vivo; Tissue distribution, Adrenal): 0.09 ± 0.02 %ID/g
- tissue uptake at 5 min (in vivo; Tissue distribution, Blood): 1.07 ± 0.31 %ID/g
- tissue uptake at 1 h (in vivo; Tissue distribution, Blood): 0.14 ± 0.02 %ID/g
- tissue uptake at 5 min (in vivo; Tissue distribution, Bone): 1.1 ± 0.16 %ID/g
- tissue uptake at 1 h (in vivo; Tissue distribution, Bone): 2.94 ± 0.37 %ID/g
- tissue uptake at 5 min (in vivo; Tissue distribution, Heart): 1 ± 0.34 %ID/g
- tissue uptake at 1 h (in vivo; Tissue distribution, Heart): 0.14 ± 0.02 %ID/g
- tissue uptake at 5 min (in vivo; Tissue distribution, Inf mus): 1.22 ± 0.36 %ID/g
- tissue uptake at 1 h (in vivo; Tissue distribution, Inf mus): 0.43 ± 0.1 %ID/g
- tissue uptake at 5 min (in vivo; Tissue distribution, Kidney): 4.78 ± 0.8 %ID/g
- tissue uptake at 1 h (in vivo; Tissue distribution, Kidney): 0.23 ± 0.05 %ID/g
- tissue uptake at 5 min (in vivo; Tissue distribution, Liver): 1.39 ± 0.16 %ID/g
- tissue uptake at 1 h (in vivo; Tissue distribution, Liver): 0.13 ± 0.03 %ID/g
- tissue uptake at 5 min (in vivo; Tissue distribution, Lung): 1.21 ± 0.13 %ID/g
- tissue uptake at 1 h (in vivo; Tissue distribution, Lung): 0.11 ± 0.02 %ID/g
- tissue uptake at 5 min (in vivo; Tissue distribution, Norm mus): 0.83 ± 0.09 %ID/g
- tissue uptake at 1 h (in vivo; Tissue distribution, Norm mus): 0.078 ± 0.02 %ID/g
- tissue uptake at 5 min (in vivo; Tissue distribution, Spleen): 1.4 ± 0.3 %ID/g
- tissue uptake at 1 h (in vivo; Tissue distribution, Spleen): 0.14 ± 0.03 %ID/g
- tissue uptake at 5 min (in vivo; Tissue distribution, Teste): 0.57 ± 0.02 %ID/g
- tissue uptake at 1 h (in vivo; Tissue distribution, Teste): 0.16 ± 0.03 %ID/g
- tissue uptake at 1 h (in vivo; ^18F bone uptake (defluorination in vivo)): 2.94 ± 0.37 %ID/g
Compound: O=C(CCCC[C@@H]1SC[C@@H]2NC(=O)N[C@@H]21)NCCC[18F] [Biotin 1]
- binding to avidin (avidin; in the presence of varying concentrations of unlabeled d-biotin): bind to avidin and could be displaced by cold d-biotin
- Infected to normal tissue ratio, Adrenal (E. coli infected rats; With Avidin, 5 Min.): 1.20±0.22
- Infected to normal tissue ratio, Blood (E. coli infected rats; With Avidin, 5 Min.): 0.90±0.14
- Infected to normal tissue ratio, Heart (E. coli infected rats; With Avidin, 5 Min.): 1.08±0.18
- Infected to normal tissue ratio, Kidney (E. coli infected rats; With Avidin, 5 Min.): 0.28±0.06
- Infected to normal tissue ratio, Liver (E. coli infected rats; With Avidin, 5 Min.): 0.83±0.16
- Infected to normal tissue ratio, Lung (E. coli infected rats; With Avidin, 5 Min.): 1.06±0.30
- Infected to normal tissue ratio, Spleen (E. coli infected rats; With Avidin, 5 Min.): 0.64±0.11
- Infected to normal tissue ratio, Teste (E. coli infected rats; With Avidin, 5 Min.): 2.00±0.37
- Infected to normal tissue ratio, bone (E. coli infected rats; With Avidin, 5 Min.): 0.90±0.18
- Infected to normal tissue ratio, Norm mus (E. coli infected rats; With Avidin, 5 Min.): 1.24±0.20
- Infected to normal tissue ratio, Adrenal (E. coli infected rats; With Avidin, 60 Min.): 5.74±1.14
- Infected to normal tissue ratio, Blood (E. coli infected rats; With Avidin, 60 Min.): 3.75±0.75
- Infected to normal tissue ratio, Heart (E. coli infected rats; With Avidin, 60 Min.): 7.59±1.34
- Infected to normal tissue ratio, Kidney (E. coli infected rats; With Avidin, 60 Min.): 2.04±0.35
- Infected to normal tissue ratio, Liver (E. coli infected rats; With Avidin, 60 Min.): 4.05±0.65
- Infected to normal tissue ratio, Lung (E. coli infected rats; With Avidin, 60 Min.): 4.83±0.91
- Infected to normal tissue ratio, Spleen (E. coli infected rats; With Avidin, 60 Min.): 3.34±0.72
- Infected to normal tissue ratio, Teste (E. coli infected rats; With Avidin, 60 Min.): 3.35±0.56
- Infected to normal tissue ratio, bone (E. coli infected rats; With Avidin, 60 Min.): 0.28±0.07
- Infected to normal tissue ratio, Norm mus (E. coli infected rats; With Avidin, 60 Min.): 6.39± 0.96
- Infected to normal tissue ratio, Norm mus (E. coli infected rats; With Avidin, 60 Min., listed as 18F-labeled biotin 1): 6.39±0.96
- Infected to normal tissue ratio, Adrenal (E. coli infected rats; Without Avidin, 5 Min.): 1.06±0.24
- Infected to normal tissue ratio, Blood (E. coli infected rats; Without Avidin, 5 Min.): 1.30±0.86
- Infected to normal tissue ratio, Heart (E. coli infected rats; Without Avidin, 5 Min.): 1.21±0.26
- Infected to normal tissue ratio, Kidney (E. coli infected rats; Without Avidin, 5 Min.): 0.26±0.05
- Infected to normal tissue ratio, Liver (E. coli infected rats; Without Avidin, 5 Min.): 0.89±0.25
- Infected to normal tissue ratio, Lung (E. coli infected rats; Without Avidin, 5 Min.): 1.00±0.23
- Infected to normal tissue ratio, Spleen (E. coli infected rats; Without Avidin, 5 Min.): 0.94±0.49
- Infected to normal tissue ratio, Teste (E. coli infected rats; Without Avidin, 5 Min.): 2.14±0.60
- Infected to normal tissue ratio, bone (E. coli infected rats; Without Avidin, 5 Min.): 1.06±0.33
- Infected to normal tissue ratio, Norm mus (E. coli infected rats; Without Avidin, 5 Min.): 1.54±0.69
- Infected to normal tissue ratio, Adrenal (E. coli infected rats; Without Avidin, 60 Min.): 5.20±1.20
- Infected to normal tissue ratio, Heart (E. coli infected rats; Without Avidin, 60 Min.): 6.21±0.57
- Infected to normal tissue ratio, Lung (E. coli infected rats; Without Avidin, 60 Min.): 4.21±0.69
- Infected to normal tissue ratio, Spleen (E. coli infected rats; Without Avidin, 60 Min.): 2.98±0.30
- Infected to normal tissue ratio, Teste (E. coli infected rats; Without Avidin, 60 Min.): 2.87±0.50
- Infected to normal tissue ratio, bone (E. coli infected rats; Without Avidin, 60 Min.): 0.16±0.04
- Infected to normal tissue ratio, Norm mus (E. coli infected rats; Without Avidin, 60 Min.): 6.08 ± 1.12
- Infected to normal tissue ratio, Norm mus (E. coli infected rats; Without Avidin, 60 Min., listed as 18F-Biotin 1): 6.1±1.1
- Infected to normal tissue ratio, Norm mus (E. coli infected rats; [2]): 6.1
- Infected to normal tissue ratio, Norm mus (E. coli infected rats; [3]): 6.08±1.12
- Infected to normal tissue ratio, Norm mus (E. coli infected rats; Without Avidin, 60 Min., listed as biotin 1): 6.08± 1.12
- Infected to normal tissue ratio, Blood (E. coli infected rats; [2]): 3.1
- Infected to normal tissue ratio, Kidney (E. coli infected rats; [2]): 2.0
- Infected to normal tissue ratio, Liver (E. coli infected rats; [2]): 3.5
- Infected to normal tissue ratio, Blood (E. coli infected rats; [3]): 3.09±0.54
- Infected to normal tissue ratio, Kidney (E. coli infected rats; [3]): 1.96±0.24
- Infected to normal tissue ratio, Liver (E. coli infected rats; [3]): 3.48±0.67

Compound: ^67Ga-citrate
- Infected/normal muscle ratio [1]: 2.6±0.6
